Experimental data reported in US20080182978A1, “ANTI-NGF ANTIBODIES AND METHODS USING SAME” (RINAT NEUROSCIENCE CORP, priority 2002, published 2008).
Entries after “also recorded” stand apart in the source; their conditions may differ.

B1: E3: humanized, affinity matured anti-NGF antagonist antibody; variable regions SEQ ID NO:1 and 2; human IgG2a (A330P331 to S330S331), kappa (antibody, V domains shown)
VH: QVQLQESGPGLVKPSETLSLTCTVSGFSLIGYDLNWIRQPPGKGLEWIGIIWGDGTTDYNSAVKSRVTISKDTSKNQFSLKLSSVTAADTAVYYCARGGYWYATSYYFDYWGQGTLVTVS
VL: DIQMTQSPSSLSASVGDRVTITCRASQSISNNLNWYQQKPGKAPKLLIYYTSRFHSGVPSRFSGSGSGTDFTFTISSLQPEDIATYYCQQEHTLPYTFGQGTKLEIKRT
modifications: human IgG2a constant (A330S/P331S) and kappa constant missing

Key:
[1] = system: complete Freund's adjuvant (CFA)-induced chronic arthritis; assay: CFA-induced chronic arthritis in rats, vocalization test (Example 7); format: in vivo, rat
Source text: The analgesic effects of anti-NGF antibody, 911 (see Hongo et al., Hybridoma 19(3):215-227 (2000)) in complete Freund's adjuvant (CFA)-induced chronic arthritis in rats were investigated using the vocalization test, in comparison with indomethacine used as reference substance.
Fifty (50) male Lewis rats (LEWIS LEW/Crl Ico) (Charles River Belgium) weighing 150 g to 220 g at the beginning of the experimental phase were included in this study. […]
On day 0 (D0), arthritis was induced in rats by intradermal injection into the tail of 0.05 ml of a Mycobacterium butyricum (Difco, USA) suspension in mineral oil (10 mg/ml). On day 14 (D14), arthritic rats were included in the study according to their ability to vocalize upon gentle flexion of the hindpaw and by their arthritis index, evaluated using an inflammation score for each hind and forepaw (see Kuzuna et al., Chem. Pharm. Bull. (Tokyo) 23:1184-1191 (1975); Pearson et al., Arthritis Rheum. 2:440-459 (1959)). Animals were scored based on the following criteria: Score 0: normal aspect; Score 1: erythema; Score 2: erythema with slight edema; Score 3: strong inflammation without ankylosis; Score 4: ankylosis. […]
Four groups of 10 rats each were included in the study. […] On day 18 (D18), the nociceptive intensity was evaluated by gentle flexion of the hindpaw and the intensity of the level of vocalization was recorded for each animal. […]

LIF = LIF (Homo sapiens, UniProt P15018); assay: Mouse E17 nodose neuron survival assay, LIF; format: cell-based; settings: LIF 2.5 nM; antibody up to 200 nM; 48 hours
Sequence of LIF (P15018 23-202, species assumed): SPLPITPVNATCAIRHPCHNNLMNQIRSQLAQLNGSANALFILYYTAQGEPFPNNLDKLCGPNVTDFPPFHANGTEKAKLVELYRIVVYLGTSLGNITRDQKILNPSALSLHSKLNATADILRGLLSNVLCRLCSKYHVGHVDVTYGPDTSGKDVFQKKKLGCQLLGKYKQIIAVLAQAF
Procedure: The ability of antibody E3 to specifically block NGF activity was also evaluated by measurement of the capacity of the antibody to inhibit survival of mouse nodose E17 neurons in the presence of saturating concentrations of BDNF or NT4/5. Survival of nodose neurons is supported by BDNF or NT4/5; therefore, survival of these neurons is a sensitive assay to evaluate the BDNF or NT4/5-blocking ability of the anti-NGF antagonist antibody.
The survival assay was conducted as follows: time mated pregnant Swiss Webster female mice were euthanised by CO2 inhalation. The uterine horns were removed and the embryos (at embryonic day 17 or 18) were extracted and decapitated. The trigeminal and nodose ganglia were dissected and cleaned. The ganglia were then trypsinised, mechanically dissociated and plated at a density of 100-300 cells per well in defined, serum-free medium in 4-well plates (Greiner) coated with poly-L-ornithine and laminin.
E17 nodose neurons were grown either in the absence of added neurotrophic factors (negative control), or with saturating concentrations of BDNF (400 pM) (positive control) or NT4/5 (400 pM) or NGF unrelated growth factor […]. High concentrations of neurotrophins were used, as the goal of this experiment was to test specificity of the antibodies. […]

human NGF = human NGF (Homo sapiens, UniProt P01138); assay: BIAcore affinity determination assay (kon, koff, KD of purified Fabs); format: binding; settings: higher affinity than 911
Sequence of human NGF (P01138 122-241): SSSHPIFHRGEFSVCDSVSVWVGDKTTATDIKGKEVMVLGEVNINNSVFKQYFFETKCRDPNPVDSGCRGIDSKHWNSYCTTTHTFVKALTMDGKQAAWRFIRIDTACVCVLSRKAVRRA
Procedure: Affinities of anti-NGF Fabs and monoclonal antibodies were determined using the BIAcore300™ surface plasmon resonance (SPR) system (BIAcore, INC, Piscaway N.J.). CM5 chips were activated with N-ethyl-N′-(3-dimethylaminopropyl)-carbodimide hydrochloride (EDC) and N-hydroxysuccinimide (NHS) according to the supplier's instructions. Human NGF was diluted into 10 mM sodium acetate pH 4.0 and injected over the activated chip at a concentration of 0.005 mg/mL. Using variable flow time across the individual chip channels, two ranges of antigen density were achieved: 100-200 response units (RU) for detailed kinetic studies and 500-600 RU for screening assays. The chip was blocked with ethanolamine. […] HBS-EP buffer (0.01M HEPES, pH 7.4, 0.15 NaCl, 3 mM EDTA, 0.005% Surfactant […]) was used as running buffer for all the BIAcore assays.
Serial dilutions (0.1-10× estimated KD) of purified Fab samples were injected for 1 min at 100 μL/min and dissociation times of up to 2 h were allowed. The concentrations of the Fab proteins were determined by ELISA and/or SDS-PAGE electrophoresis using as a standard a Fab of known concentration (as determined by amino acid analysis). Kinetic association rates (kon) and dissociation rates (koff) were obtained simultaneously by fitting the data to a 1:1 Langmuir binding model (Karlsson, R. Roos, H. Fagerstam, L. Petersson, B. (1994). Methods Enzymology 6. 99-110) using the BIAevaluation program. Equilibrium dissociation constant (KD) values were calculated as koff/kon.
The binding affinities to human NGF of Fabs E3 and 3C were measured using BIAcore analysis according to the manufacturer's instructions and as described above, except that 100 RU NGF was used on chip to prevent a rebinding effect. Briefly, several concentrations of antibodies (Fabs) were injected for 2 minutes onto a CM5 chip with 100 RU of immobilized human NGF on it, and permitted to dissociate for 1800 seconds. Mouse antibody 911 (Fab) was analyzed as a control. Data was analyzed using BIAevaluation software following the manufacturer's instructions. E3 bound human NGF with a KD of approximately 0.07 nM (and with a kon of about 6.0e5 M-1s-1, and a koff of about 4.2e-5s-1).

Row | Molecule | Nociceptive intensity ([1]; 10 mg/kg orally at D18, measured one hour after dosing) [mV] | % variation of nociceptive intensity vs vehicle-treated group ([1]; 10 mg/kg orally at D18, one hour after dosing) [%] | survival of E17 nodose neurons promoted by LIF (LIF) | binding affinity to human NGF relative to parent mouse antibody 911 (human NGF)
1 | COc1ccc2c(c1)c(CC(=O)O)c(C)n2C(=O)c1ccc(Cl)cc1 [Indomethacin, reference compound] | 145.8 ± 29.9 | −85 |  | 
2 | B1 |  |  | had no effect; also recorded: did not inhibit | approximately 50 fold
